≈ marks a conversion by molar mass, not a printed value.
System: not listed separately
Test: Solubility in water
Assay type: physicochemical
Details: read-out: S

solubility [µM] | SMILES
10 (≈ 3.54 µg/mL) | CC(C)CCn1c(=O)c2nc(-c3ccccc3)[nH]c2n(CC(C)C)c1=O
> 20000 | Cn1c(=O)c2[nH]c(-c3ccc(S(=O)(=O)O)cc3)nc2n(C)c1=O
90 (≈ 27 µg/mL) | Cn1c(=O)c2[nH]c(-c3ccc(C(=O)O)cc3)nc2n(C)c1=O
5 (≈ 1.36 µg/mL) | Cn1c(=O)c2nc(-c3ccc(O)cc3)[nH]c2n(C)c1=O

Biological target: T1, Adenosine receptor A2a (Cavia porcellus, UniProt P46616)
T1 sequence (P46616 whole entry): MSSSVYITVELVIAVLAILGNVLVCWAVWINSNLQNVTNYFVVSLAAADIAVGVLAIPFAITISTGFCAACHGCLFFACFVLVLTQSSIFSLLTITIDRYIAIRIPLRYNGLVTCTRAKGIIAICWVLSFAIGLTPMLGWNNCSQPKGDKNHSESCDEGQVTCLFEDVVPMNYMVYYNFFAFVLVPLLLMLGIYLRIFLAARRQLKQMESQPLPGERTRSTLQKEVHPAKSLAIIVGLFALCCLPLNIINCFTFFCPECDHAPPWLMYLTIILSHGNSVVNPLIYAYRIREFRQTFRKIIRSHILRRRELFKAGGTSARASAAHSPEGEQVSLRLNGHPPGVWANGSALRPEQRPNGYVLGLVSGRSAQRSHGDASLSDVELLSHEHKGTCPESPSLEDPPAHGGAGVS
Test: Antagonism of cyclic [3H]AMP accumulation elicited by 15 uM 2-chloroadenosine in [3H]adenine-labeled guinea pig cerebral cortical slices at A2 receptor
Assay type: functional
Details: not given

EC50 [nM] | SMILES
8000 | Nc1nc(Cl)nc2c1ncn2[C@@H]1O[C@H](CO)[C@@H](O)[C@H]1O

Biological target: T2, Adenosine receptor A1 (Rattus norvegicus, UniProt P25099)
T2 sequence (P25099 whole entry): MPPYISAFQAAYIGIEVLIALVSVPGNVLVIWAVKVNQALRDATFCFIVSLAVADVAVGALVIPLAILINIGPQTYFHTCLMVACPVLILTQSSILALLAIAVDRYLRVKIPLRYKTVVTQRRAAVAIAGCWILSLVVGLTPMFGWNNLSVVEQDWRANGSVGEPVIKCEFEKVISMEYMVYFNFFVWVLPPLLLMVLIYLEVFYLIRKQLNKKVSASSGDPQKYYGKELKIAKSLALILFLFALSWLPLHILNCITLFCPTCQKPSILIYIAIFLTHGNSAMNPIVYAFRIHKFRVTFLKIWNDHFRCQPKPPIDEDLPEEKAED
Test: Antagonism of binding of 1 nM [3H]cyclohexyladenosine to adenosine A1 receptors on rat cortical membranes
Assay type: cell membranes, Membrane
Details: not given

SMILES | Ki [nM]
CC(C)CCn1c(=O)c2nc(-c3ccccc3)[nH]c2n(CC(C)C)c1=O | 1800
Cn1c(=O)c2[nH]c(-c3cccc(C(=O)O)c3)nc2n(C)c1=O | 32000
CCCn1c(=O)c2[nH]c(-c3ccc(S(=O)(=O)O)cc3)nc2n(CCC)c1=O | 210
CCCn1c(=O)c2nc(-c3ccc(C(=O)O)cc3)[nH]c2n(CCC)c1=O | 170
Cn1c(=O)c2nc(-c3ccccc3C(=O)O)[nH]c2n(C)c1=O | > 50000
CCCn1c(=O)c2[nH]c(-c3ccc(Cl)cc3N)nc2n(CCC)c1=O | 2.5
Cn1c(=O)c2nc(-c3ccc(O)cc3)[nH]c2n(C)c1=O | 50
Cn1c(=O)c2[nH]c(-c3cccc(N)c3)nc2n(C)c1=O | 1100
CC(C)CCn1c(=O)c2[nH]c(-c3ccc(S(=O)(=O)O)cc3)nc2n(CC(C)C)c1=O | 3500
Cn1c(=O)c2nc(-c3ccccc3N)[nH]c2n(C)c1=O | 850

Continued, values first:

Ki [nM] | SMILES
6500 | Cc1nc2c(=O)n(C)c(=O)n(C)c2[nH]1
17000 | Cn1c(=O)c2c(nc(-c3ccccc3)n2C)n(C)c1=O
340 | Cn1c(=O)c2[nH]c(-c3cccc(O)c3)nc2n(C)c1=O
230 | Cn1c(=O)c2[nH]c(-c3ccc(N)cc3)nc2n(C)c1=O
13000 | CC(C)CCn1c(=O)c2[nH]cnc2n(CC(C)C)c1=O
750 | Cn1c(=O)c2[nH]c(-c3ccccc3O)nc2n(C)c1=O
700 | CCCn1c(=O)c2nc[nH]c2n(CCC)c1=O
2.9 | CCCn1c(=O)c2nc(-c3ccc(O)cc3)[nH]c2n(CCC)c1=O

Biological target: T1, Adenosine receptor A2a
Details: not given

SMILES | Ki [nM]
CC(C)CCn1c(=O)c2nc(-c3ccccc3)[nH]c2n(CC(C)C)c1=O | > 10000
Cn1c(=O)c2[nH]c(-c3cccc(C(=O)O)c3)nc2n(C)c1=O | 15000
CCCn1c(=O)c2[nH]c(-c3ccc(S(=O)(=O)O)cc3)nc2n(CCC)c1=O | 710
Cn1c(=O)c2[nH]c(-c3ccc(S(=O)(=O)O)cc3)nc2n(C)c1=O | 6300
Cn1c(=O)c2nc(-c3ccccc3C(=O)O)[nH]c2n(C)c1=O | > 30000
CCCn1c(=O)c2[nH]c(-c3ccc(Cl)cc3N)nc2n(CCC)c1=O | 1000
Cn1c(=O)c2nc(-c3ccc(O)cc3)[nH]c2n(C)c1=O | 130
Cn1c(=O)c2[nH]c(-c3ccccc3)nc2n(C)c1=O [8-PHENYL THEOPHYLLINE] | 550
Cn1c(=O)c2[nH]c(-c3cccc(N)c3)nc2n(C)c1=O | 900
CC(C)CCn1c(=O)c2[nH]c(-c3ccc(S(=O)(=O)O)cc3)nc2n(CC(C)C)c1=O | 7000
Cn1c(=O)c2nc(-c3ccccc3N)[nH]c2n(C)c1=O | 1700

Further lines, results first:

Ki [nM] | SMILES
14000 | Cc1nc2c(=O)n(C)c(=O)n(C)c2[nH]1
27000 | Cn1c(=O)c2c(nc(-c3ccccc3)n2C)n(C)c1=O
2500 | Cn1c(=O)c2[nH]c(-c3ccc(C(=O)O)cc3)nc2n(C)c1=O
1000 | Cn1c(=O)c2[nH]c(-c3cccc(O)c3)nc2n(C)c1=O
130 | Cn1c(=O)c2[nH]c(-c3ccc(N)cc3)nc2n(C)c1=O
> 150000 | CC(C)CCn1c(=O)c2[nH]cnc2n(CC(C)C)c1=O
1700 | Cn1c(=O)c2[nH]c(-c3ccccc3O)nc2n(C)c1=O
50 | CCCn1c(=O)c2nc(-c3ccc(O)cc3)[nH]c2n(CCC)c1=O
